Data on one compound can be found in patent US7132286B2, “Method for neural stem cell differentiation using valproate” (Psychiatric Genomics, Inc., priority 2001, dated 2006).

“Also recorded” adds a separate entry of the source.

Assay [1] deals with rat cortical stem cells. The experiment in a line: Astrocyte differentiation of rat cortical stem cells (GFAP immunofluorescence). The following applies: 6 days valproate vs control. In kind it is cell-based. The procedure:
Drug treatment. For immunofluorescence and Western analysis, cells were treated daily with either 0.5 mM of valproate (Sigma), 10 ng/ml of BDNF (R & D Systems), 20 ng/ml of NT-3 (R & D Systems), 1 nM 9cis retinoic acid (Sigma) or a dilution of NCM for 6 or 7 days. In some experiments valproate was also added with NCM and/or 9cis RA for 7 days. For human stem cell experiments, valproate (0.5 mM) or BDNF (25 ng/ml) was added for 9 days. For neurite outgrowth experiments, cells were treated for 1 day with 0.5 mM valproate or 50 ng/ml of BDNF. Where applicable, medium was changed every 2 days. After about 5–10 days, preferably on day 6 (i.e., after 6 days of drug exposure) the cells were fixed with a 4% solution of para-formaldehyde (PFA) in PBS, prepared as follows: Immunofluorescent staining and visualization. Cells were plated at 20,000 cells/well in poly-L-ornithine/fibronectin (1 mg/ml) coated 24-well plates. […] For immunofluorescence, 3 different black and white pictures were taken by field of interest with a digital camera CoolSnap Fx (Princeton) corresponding to the exposure of Cy2, Cy3 and Hoechst fluorescence. […] The percentage of neurons, astrocytes and GABAergic cells was determined by comparing the number of cells immunopositive for β-tubulin III, GFAP and GABA to the number of bis-benzamide stained nuclei (i.e., total cell number). […]

The subject of assay [2] is glutamate decarboxylase (GAD). The experiment in a line: Western blot of GAD 65/67 expression in rat cortical stem cell cultures. The following applies: 0.5 mM valproate. The format is cell-based. As for the experimental part:
Western blotting. Cells were plated at 1×10^6 cells/100 mm dish in poly-1-ornithine-coated 10 cm dishes and treated as described supra. Denatured proteins were separated on 8% polyacrylamide Tris-Glycine gels (Novex) and transferred to nitrocellulose membranes (BioRad). Membranes were probed with antibodies against rabbit anti-GAD 65/67 (Sigma) at 1:10,000 and HRP-conjugated anti-rabbit (Jackson Immunolabs) at 1:10,000 respective dilutions. Antigen-antibody complexes were visualized using a SuperSignal West Pico Chemiluminescent Kit (Pierce).
In general terms: Immunoblotting shows a protein as a band on a membrane.

For assay [3], the system named is teratocarcinoma cell line NTera-2. The following applies: NTera-2 cells (Skladchikova et al.); cited from earlier work.

`CCCC(CCC)C(=O)O` [valproate, 2-Propylpentanoic acid]: in assay [1], the “expression of GFAP (astrocyte marker)” value is “dramatically inhibited”. For the same compound, the GAD expression result in assay [2] (3 and 6 days) was “GAD expression was increased; also recorded: increases GAD expression after 3 and 6 days”; in assay [2] (1 day), “No expression of GAD was detectable”. In addition, the “proliferation and retinoic acid-induced neuronal differentiation” value in assay [3] is “inhibit the proliferation and block retinoic acid-induced neuronal differentiation”.
